Experimental data taken from ChEMBL document CHEMBL1126607, “Synthesis and binding characteristics of potential SPECT imaging agents for sigma-1 and sigma-2 binding sites” (J Med Chem, 1993).

Experiments:
Sigma 2 receptor [1] = experiment: Binding affinity was evaluated against sigma-2 binding site in rat liver using [3H]DTG -(+)-Dextrallorphan as radioligand
Sigma 2 receptor [2] = experiment: The Binding affinity was evaluated against sigma-2 binding site in rat liver using [3H]- -(+)-3-PPP
Sigma 2 receptor [3] = experiment: The Binding affinity was evaluated using [3H]DTG -(+)-Dextrallorphan] in rat liver

Structure (SMILES)	Ki (Sigma 2 receptor [1])	Ki (Sigma 2 receptor [2])	Ki (Sigma 2 receptor [3])
CN(CCc1ccc(I)cc1)CCN1CCCC1	43.1 nM		
CN(CCN1CCCC1)Cc1cccc(Br)c1	220 nM		
CN(CCc1ccc(F)cc1)CCN1CCCC1	124 nM		
CN(CCN1CCCC1)Cc1ccc(I)cc1	24.5 nM		
CN(CCc1ccc(Cl)c(Cl)c1)CCN1CCCC1	8.1 nM	0.34 nM	
CN(CCc1ccc(Br)cc1)CCN1CCCC1	32.5 nM		
CN(CCN1CCCC1)Cc1ccccc1I	48.2 nM		
CN(CCN1CCCC1)Cc1cccc(I)c1	33.7 nM		
CN(CCc1ccc(Cl)cc1)CCN1CCCC1	50.5 nM		
Cc1ccc(NC(=N)Nc2ccc(C)cc2)cc1			1540 nM

Now from value to compound:

Ki (Sigma 2 receptor [1])	Ki (Sigma 2 receptor [2])	Ki (Sigma 2 receptor [3])	Structure (SMILES)
28.3 nM			CN(CCc1cccc(Cl)c1)CCN1CCCC1
59.8 nM			CN(CCc1cccc(Br)c1)CCN1CCCC1
9.1 nM			CN(CCc1cccc(I)c1)CCN1CCCC1
104 nM			CN(CCc1cccc(F)c1)CCN1CCCC1
